According to patent US9345742B2, “Aminostatin derivatives for the treatment of arthrosis” (MERCK PATENT GMBH, priority 2011, dated 2016):
Numbered stars: 1 amine (or outer) side, 2 acyl side, 3 side chain; on linkers, the order of the positions; unused ones are H or OH. Square brackets hold non-standard residues; d marks the D form. Peptide text beside a SMILES is read from it. * marks the point of attachment. X1 = N[C@@H](CC(=O)[*:2])[C@H](Cc1ccccc1)N[*:1]; 1Nal = N[C@@H](Cc1cccc2ccccc12)C(=O)O; Tle = CC(C)(C)[C@H](N)C(=O)O; Isovaleryl = CC(C)CC(=O)*; Ac3c = NC1(C(=O)O)CC1

Legend:
recombinant human renin = recombinant human renin (Homo sapiens (Human), UniProt P00797); test: In-vitro fluorescence assay for identification of renin-inhibitory activity; format: biochemical; details: recombinant human renin 10 nM, pH 7.2; read-out: Renin selectivity IC50
Experimental: In order to identify modulators of renin activity, a continuous enzymatic test was carried out with a synthetic peptide which carries a fluorescent group Edans (=(5-(aminoethyl)aminonaphthalenesulfonate) which is quenched by energy transfer from a Dabcyl (4′-dimethylaminoazobenzene-4-carboxylate) group on the same molecule, in Greiner 384-well microtitre plates. Cleavage of the peptidic substrate by renin causes an increase in the fluorescence intensity. In order to determine the efficacy of substances, the time-dependent increase in the fluorescence intensity in the presence of the substance was compared with the time-dependent increase in fluorescence in the absence of substances. The reference substance used was renin inhibitor 2 (Z-Arg-Arg-Pro-Phe-His-Sta-Ile-His N-Boc-Lys methyl ester Z) (Sigma-Aldrich). The substrate used was renin FRET substrate I (DABCYL-g-Abu-[…]EDANS) (Anaspec, Fremont Calif.). The enzyme employed was recombinant human renin (Proteos, Kalamazoo, Mich.) in a final concentration of 10 nM. The test was carried out in 50 mM Mops buffer, 1.5% (v/v) of DMSO, 0.1% (w/v) of Igepal®, pH 7.2, 0.5% (w/v) of BSA. 2 μl of each substance solution with serially diluted substance concentration were added to in each case 4 μl of renin solution and incubated at room temperature for 15 min. The reaction was started by addition of 4 μl of substrate solution (final concentration 5 μM). After carrying out a starting-point fluorescence measurement (excitation wavelength 340 nm/emission wavelength 495 nm) using an Envision multilabel reader (Perkin Elmer), the reaction was incubated at 37° C. for 60 min. The amount of peptide fragment cleaved off during the reaction time was subsequently measured by determination of the increase in the fluorescence intensity at 495 nm (excitation wavelength 340 nm).

[1] = biological target: cathepsin D isolated from the human liver (Homo sapiens (Human), UniProt P07339); test: In-vitro fluorescence assay for identification of cathepsin D inhibitors; format: biochemical; details: cathepsin D 1.4 nM, pH 5.5; read-out: CatD assay IC50-
Experimental: In order to identify modulators of cathepsin D activity, a continuous enzymatic test was carried out with a synthetic peptide which carries a fluorescent group (MCA=(7-methoxycoumarin-4-yl)acetyl) which is quenched by energy transfer from a Dpn (2,4 dinitrophenyl) group on the same molecule, in Greiner 384-well nb microtitre plates. Cleavage of the peptidic substrate by cathepsin D causes an increase in the fluorescence intensity. In order to determine the efficacy of substances, the time-dependent increase in the fluorescence intensity in the presence of the substance was compared with the time-dependent increase in fluorescence in the absence of substances. The reference substance used was pepstatin A (Sigma-Aldrich). The substrate used was […](Dnp)d-R—NH2 (Enzo Life Sciences, Lörrach). The enzyme employed was cathepsin D isolated from the human liver (Sigma-Aldrich) in a final concentration of 1.4 nM. The test was carried out in 100 mM sodium acetate buffer, 1.25% (v/v) of DMSO, 0.25% (w/v) of Chaps, pH 5.5. 2 μl of each substance solution with serially diluted substance concentration were added to in each case 4 μl of cathepsin D solution and incubated at room temperature for 10 min. The reaction was started by addition of 2 μl of substrate solution (final concentration 5 μM). After carrying out a starting-point fluorescence measurement (excitation wavelength 340 nm/emission wavelength 450 nm) using an Envision multilabel reader (Perkin Elmer), the reaction was incubated at room temperature for 60 min. The amount of peptide fragment cleaved off during the reaction time was subsequently measured by determination of the increase in the fluorescence intensity at 450 nm (excitation wavelength 340 nm).

Sequence of cathepsin D isolated from the human liver (P07339 65-161): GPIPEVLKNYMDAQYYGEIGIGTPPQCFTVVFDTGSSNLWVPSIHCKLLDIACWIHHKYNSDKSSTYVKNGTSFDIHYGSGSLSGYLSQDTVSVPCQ
Sequence of cathepsin D isolated from the human liver (P07339 169-412): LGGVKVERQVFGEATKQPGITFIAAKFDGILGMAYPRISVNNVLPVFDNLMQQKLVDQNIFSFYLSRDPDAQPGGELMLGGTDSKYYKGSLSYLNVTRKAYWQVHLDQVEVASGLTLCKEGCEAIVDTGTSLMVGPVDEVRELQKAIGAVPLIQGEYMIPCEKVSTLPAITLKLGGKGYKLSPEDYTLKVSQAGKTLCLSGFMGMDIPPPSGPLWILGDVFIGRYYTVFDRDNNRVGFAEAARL
Sequence of recombinant human renin (P00797 67-406): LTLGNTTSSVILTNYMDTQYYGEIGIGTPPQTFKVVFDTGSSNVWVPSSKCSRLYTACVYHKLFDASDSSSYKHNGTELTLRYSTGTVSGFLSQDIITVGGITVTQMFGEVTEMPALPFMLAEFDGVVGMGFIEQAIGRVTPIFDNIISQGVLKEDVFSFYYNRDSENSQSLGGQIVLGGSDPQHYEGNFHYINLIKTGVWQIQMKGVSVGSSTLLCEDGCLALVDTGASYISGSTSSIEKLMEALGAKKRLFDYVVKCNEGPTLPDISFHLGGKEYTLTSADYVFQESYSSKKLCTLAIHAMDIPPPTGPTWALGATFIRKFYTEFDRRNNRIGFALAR

For `CC[C@H](C)[C@H](NC(=O)C[C@H](N)[C@H](Cc1ccccc1)NC(=O)[C@@H](NC(=O)Cc1cccc(NS(C)(=O)=O)c1)C(C)C)C(=O)N[C@H](C(=O)OC)C(C)C` [Compound 9, Methyl (S)-2-[(2S,3S)-2-((3S,4S)-3-amino-4-{(S)-2-[2-(3-methanesulfonylamino-phenyl)-acetylamino]-3-methylbutyrylamino}-5-phenylpentanoylamino)-3-methyl-pentanoylamino]-3-methylbutyrate], the IC50 (recombinant human renin) was > 30000 nM and the IC50 [1] was 81 nM.
`CC[C@H](C)[C@H](NC(=O)C[C@H](N)[C@H](Cc1ccccc1)NC(=O)[C@H](Cc1ccccc1)NC(=O)[C@H](CC(C)C)NC(=O)CC(C)C)C(=O)N[C@H](C(=O)OC)C(C)C` [Compound 11, Methyl (S)-2-[(2S,3S)-2-((3S,4S)-3-amino-4-{(S)-2-[(S)-4-methyl-2-(3-methylbutyrylamino)pentanoylamino]-3-phenyl-propionylamino}-5-phenylpentanoylamino)-3-methylpentanoylamino]-3-methyl-butyrate] (Isovaleryl-LF[X1]IV-OMe) was tested, and the IC50 (recombinant human renin) was > 30000 nM and the IC50 [1] was 610 nM.
For `CCOC(=O)C1(NC(=O)[C@@H](NC(=O)C[C@H](N)[C@H](Cc2ccccc2)NC(=O)[C@@H](NC(=O)[C@H](CC(C)C)NC(=O)CC(C)C)C(C)C)[C@@H](C)CC)CC1` [Compound 12, Ethyl 1-[(2S,3S)-2-((S)-3-(S)-amino-4-((S)-3-methyl-2-[(S)-4-methyl-2-(3-methyl-butyrylamino)pentanoylamino]butyryl-amino}-5-phenylpentanoylamino)-3-methyl-pentanoylamino] cyclopropanecarboxylate] (Isovaleryl-LV[X1]I[Ac3c]-OEt), the IC50 (recombinant human renin) was > 30000 nM and the IC50 [1] was 110 nM.
In the case of `CC[C@H](C)[C@H](NC(=O)C[C@H](N)[C@H](Cc1ccccc1)NC(=O)[C@@H](NC(=O)[C@H](CC(C)C)NC(=O)CC(C)C)C(C)C)C(=O)N[C@@H](CC(C)C)C(=O)OC` [Compound 14, Methyl (S)-2-[(2S,3S)-2-((S)-3-(S)-amino-4-{(S)-3-methyl-2-[(S)-4-methyl-2-(3-methyl-butyrylamino)pentanoylamino]butyryl-amino}-5-phenylpentanoylamino)-3-methylpentanoylamino]-4-methylpentanoate] (Isovaleryl-LV[X1]IL-OMe), the IC50 (recombinant human renin) is reported as > 30000 nM and the IC50 [1] is reported as 160 nM.
`COC(=O)[C@@H](NC(=O)[C@H](Cc1ccccc1)NC(=O)C[C@H](N)[C@H](Cc1ccccc1)NC(=O)[C@@H](NC(=O)[C@H](CC(C)C)NC(=O)CC(C)C)C(C)C)C(C)C` [Compound 15, Methyl (S)-2-[(S)-2-((3S,4S)-3-amino-4-{(S)-3-methyl-2-[(S)-4-methyl-2-(3-methyl-butyrylamino)pentanoylamino]butyryl-amino)-5-phenylpentanoylamino)-3-phenyl-propionylamino]-3-methylbutyrate] (Isovaleryl-LV[X1]FV-OMe) was tested, and the IC50 (recombinant human renin) was > 30000 nM and the IC50 [1] was 5.7 nM.
`COC(=O)[C@@H](NC(=O)[C@H](Cc1cccc2ccccc12)NC(=O)C[C@H](N)[C@H](Cc1ccccc1)NC(=O)[C@@H](NC(=O)[C@H](CC(C)C)NC(=O)CC(C)C)C(C)C)C(C)C` [Compound 28, Methyl (S)-2-[(S)-2-((3S,4S)-3-amino-4-{(S)-3-methyl-2-[(S)-4-methyl-2-(3-methyl-butyrylamino)pentanoylamino]butyryl-amino}-5-phenylpentanoylamino)-3-naphthalen-1-ylpropionylamino]-3-methylbutyrate] (Isovaleryl-LV[X1][1Nal]V-OMe) was tested, and the IC50 (recombinant human renin) was > 30000 nM and the IC50 [1] was 3.7 nM.
In the case of `CC[C@H](C)[C@H](NC(=O)C[C@H](N)[C@H](Cc1ccccc1)NC(=O)[C@@H](NC(=O)[C@H](CC(C)C)NC(=O)CC(C)C)C(C)C)C(=O)NCc1ccccc1` [Compound 29, N-((1S,2S)-1-Benzylcarbamoyl-2-methylbutyl)-(S)-3-amino-4-{(S)-(S)-3-methyl-2-[(S)-4-methyl-2-(3-methylbutyrylamino)-pentanoylamino]butyrylamino}-5-phenylpentanamide], the IC50 (recombinant human renin) is reported as > 30000 nM and the IC50 [1] is reported as 180 nM.
In the case of `CC[C@H](C)[C@H](NC(=O)C[C@H](N)[C@H](Cc1ccccc1)NC(=O)[C@@H](NC(=O)[C@H](CC(C)C)NC(=O)CC(C)C)C(C)C)C(=O)NCC1CC1` [Compound 30, N-[(1S,2S)-1-(Cyclopropylmethyl-carbamoyl)-2-methylbutyl]-(S)-3-(S)-amino-4-{(S)-3-methyl-2-[(S)-4-methyl-2-(3-methylbutyrylamino)-pentanoylamino]butyrylamino}-5-phenylpentanamide], the IC50 (recombinant human renin) is reported as > 30000 nM and the IC50 [1] is reported as 400 nM.
`CC[C@H](C)[C@H](NC(=O)C[C@H](N)[C@H](Cc1ccccc1)NC(=O)[C@@H](NC(=O)[C@H](CC(C)C)NC(=O)CC(C)C)C(C)(C)C)C(=O)N[C@H](C(=O)OC)C(C)C` [Compound 31, Methyl (S)-2-[(2S,3S)-2-((3S,4S)-3-amino-4-{(S)-3,3-dimethyl-2-[(S)-4-methyl-2-(3-methylbutyrylamino)pentanoylamino]-butyrylamino}-5-phenylpentanoylamino)-3-methylpentanoylamino]-3-methylbutyrate] (Isovaleryl-L[Tle][X1]IV-OMe) was tested, and the IC50 (recombinant human renin) was > 30000 nM and the IC50 [1] was 120 nM.
For `CC[C@H](C)[C@H](NC(=O)C[C@H](N)[C@H](Cc1ccccc1)NC(=O)[C@@H](NC(=O)Cc1cccc(OC(F)(F)F)c1)C(C)C)C(=O)N[C@H](C(=O)O)C(C)C` [Compound 32, (S)-2-[(2S,3S)-2-((3S,4S)-3-Amino-4-{(S)-3-methyl-2-[2-(3-trifluoromethoxyphenyl)-acetylamino]butyrylamino}-5-phenyl-pentanoylamino)-3-methylpentanoyl-amino]-3-methylbutyric acid], the IC50 (recombinant human renin) was > 30000 nM and the IC50 [1] was 12 nM.
`CC(C)CCNC(=O)[C@H](C)NC(=O)C[C@H](N)[C@H](Cc1ccccc1)NC(=O)[C@@H](NC(=O)Cc1cccc(OC(F)(F)F)c1)C(C)C` [Compound 35, N-[(S)-1-(3-Methylbutylcarbamoyl)-ethyl]-(3S,4S)-3-amino-4-{(S)-3-methyl-2-[2-(3-trifluoromethoxyphenyl)acetylamino]-butyrylamino}-5-phenylpentanamide] was tested, and the IC50 (recombinant human renin) was > 30000 nM and the IC50 [1] was 190 nM.
`CCc1cccc(CC)c1NC(=O)C[C@H](N)[C@H](Cc1ccccc1)NC(=O)[C@@H](NC(=O)[C@H](CC(C)C)NC(=O)CC(C)C)C(C)C` [Compound 38, N-(2,6-Diethylphenyl)-(3S,4S)-3-amino-4-{(S)-3-methyl-2-[(S)-4-methyl-2-(3-methyl-butyrylamino)pentanoylamino]butyryl-amino}-5-phenylpentanamide] was tested, and the IC50 (recombinant human renin) was > 30000 nM and the IC50 [1] was 230 nM.
In the case of `CCc1cccc(CC)c1NC(=O)C[C@H](N)[C@H](Cc1ccccc1)NC(=O)[C@@H](NC(=O)CCCc1ccccc1)C(C)C` [Compound 40, N-(2,6-Diethylphenyl)-(3S,4S)-3-amino-4-[(S)-3-methyl-2-(4-phenylbutyrylamino)butyrylamino]-5-phenylpentanamide], the IC50 (recombinant human renin) is reported as > 30000 nM and the IC50 [1] is reported as 800 nM.
